Several values for one entry are separate records, joined by “and”; a condition that tells them apart may be missing. Equal entries are not always repeated. Entries after “also recorded” stand apart in the source; their conditions may differ.
Legend:
[1] = test system: Aspergillus fumigatus (ATCC13073); test: Individual mouse clinical signs (animal condition) in the Aspergillus fumigatus lung infection model (Example 24); format: in vivo, BALB/c mice; set-up: key: NAD = no abnormality detected
[2] = test system: Acinetobacter baumannii (ATCC 19606); test: Neutropenic lung infection model in mice, lung bacterial burden (Example 25); format: in vivo, BALB/c mice; details: for antibacterial effect on A. baumannii vs day 3 vehicle control: 10% solution aerosol once daily, p<0.05; for Log10 CFU/g lung Mean ± SD / Log10 CFU/g lung: Nu-8 (10%), aerosol, 2 h post end of treatment; for Log10 CFU/g lung Mean ± SD: group mean; for Log10 CFU/g lung: individual animals
Description: Neutropenic, BALB/c female mice, all of which were from 6 to 8 weeks of age, were infected intranasally with ˜2×10^7 CFU/lung Acinetobacter baumannii (ATCC 19606). Twenty-four hours after infection; animals were treated by aerosol route with vehicle or Nu-8 (10% solution), once daily for one, three, and five days. Following treatment for 1, 3, and 5 days, animals were terminated, and lung tissues were collected to determine the bacterial load.
The mice were separated into cohorts in accordance with Table 26.
On day −4 (four days before the date of infection), each mouse was dosed with a single intraperitoneal injection of cyclophosphamide equivalent to 150 mg/kg and returned to its cage. On day −1 (one day before infection) each mouse received a dose equivalent to 100 mg/kg of cyclophosphamide.
On day −1, an aliquot from glycerol stocks of Acinetobacter baumannii (ATCC19606) was thawed, inoculated into fresh Casein Soybean Digest Broth (CSDB) and incubated overnight at 37° C.
On the day of infection (Day 0), the overnight culture was checked, centrifuged and the cells were pelleted and resuspended in sterile normal saline to obtain approximately 10^9 CFU/ml Acinetobacter baumannii, which was used for infection. The inoculum was serially diluted ten-fold in sterile CSDB and 0.05 ml of six dilutions was plated onto CSD Agar plates to determine the viable count (CFU/ml) of inoculum.
Animals were divided into different groups as specified in the experimental design (Table 26). Infections were conducted in a biological safety cabinet, with appropriate personnel protection. Mice were placed into an induction chamber and anesthesia was induced by exposing the animals to 3%-5% Isoflurane in an oxygen flow set at approximately 1 liter per minute (LPM). Once the animals were in a sufficiently deep plane of anesthesia, they were removed and infected. Infection was done by instilling 0.02 ml (containing ˜1×10^9 CFU/ml) of the inoculum; 10 μl was instilled into each nostril of the anesthetized animal intra-nasally using a 10 μl pipette (˜2×10^7 CFU/animal). A gentle shaking/mixing of inoculum between two animals was followed for uniform distribution.
The vehicle used for the test compound was saline (0.9% NaCl adjusted to pH 3.5 with citric acid). To make 10% Nu-8 solution, 15 g of compound was weighed and dissolved in 145 ml of 0.9% NaCl; pH of solution was adjusted to 3.5 by adding 2.4 ml of citric acid solution and to this solution, 2.6 ml of 0.9% NaCl solution was added to make up the volume to 150 ml. The same procedure was followed on day 2, 3, 4 and 5.
Treatment was initiated twenty-four hours post infection. Test formulations were administered by aerosol route with nose-only apparatus connected to a nebulizer (Omron Ne-C28 Compressor Nebulizer with a volume capacity of 15 ml, Particle size 3 μm, nebulization rate: 0.5 ml/min, and Aerosol output rate: 0.09 ml/min). The formulation prepared previously was placed into the nebulizer fluid cup; animals were placed in the nose-only apparatus and the entire system was placed inside a Class II Biosafety Cabinet. Animals received nebulization for 20 min, followed by a 30-minute rest and then an additional 20-minute exposure at the same dose concentration (the flow rate and percentage of test material available at the inhalation port was 16% of the initial concentration in the nebulizer if the test compound is in solution).
Groups of animals were euthanized at 2 h post treatment, as specified in the experimental design, by an overdose of CO2 in an appropriate exposure chamber.
The euthanized animals were dipped into 70% ethanol for surface decontamination. Lungs were aseptically excised, weighed, placed in a 2 ml centrifuge tube containing 1 ml of sterile CSDB broth, and homogenized (Omni Tip (220THB handheld)). Serial ten-fold dilutions of the lung homogenates were prepared in sterile CSDB broth and 0.05 ml of four dilutions for each lung was plated onto CSDA agar plates. […]

P. aeruginosa = test: MIC in lysogeny broth (LB) at pH 4; format: cell-based
Description: (§1) The MICs are also determined using lysogeny broth (LB) at pH 4 as the growth medium. Under these conditions, Nu-8 is active against E. coli and P. aeruginosa with MICs of 54 and 27 mg/mL, respectively.

E. coli = test: MIC in lysogeny broth (LB) at pH 4; format: cell-based
Description: as §1

[3] = Body weight in the Aspergillus fumigatus lung infection model (Example 24); format: in vivo, BALB/c mice; details: Part A
[4] = test system: Acinetobacter baumannii (ATCC 19606); test: Clinical signs in the Acinetobacter baumannii lung infection model (Example 25); format: in vivo, BALB/c mice; details: treated groups vs control mice
Text: There was a >3 Log10) CFU/g lung decrease following treatment for 5 days when compared to the vehicle on day 1.

[5] = Part C, 1×10^3 conidia/animal, Nu-8 (10%), 3 doses, once daily for 3 days, aerosol, individual animals
[6] = Part D, 1×10^2 conidia/animal, Nu-8 (10%), 5 doses, once daily for 5 days, individual animals

**Q.** Which results are given for `CCCCOP(=O)(O)OC[C@H]1O[C@@H](n2ccc(N)nc2=O)C[C@@H]1OP(=O)(O)OCCCC` [Nu-8, sodium ((2R,3S,5R)-5-(4-amino-2-oxopyrimidin-1(2H)-yl)-3-((butoxyoxidophosphor-yl)oxy)tetrahydrofuran-2-yl)methyl butyl phosphate]?
**A.** Animal Condition Day 1 ([1]; Part A, 3 doses, once daily for 3 days, individual animals 19-24): Normal; Animal Condition Day 1 ([1]; Part A, 5 doses, once daily for 5 days, individual animals 25-30): Normal; Animal Condition Day 1 ([1]; Part B, 3 doses, once daily for 3 days, individual animals 23-30): NAD; Animal Condition Day 1 ([1]; Part B, single dose, individual animals 15-22): NAD; Animal Condition Day 1 [1, 5]: NAD; Animal Condition Day 2 [1, 5]: Animal dull; Animal Condition Day 3 [1, 5]: Animal dull; also recorded: Moribund; Animal Condition Day 1 [1, 6]: NAD; Animal Condition Day 2 [1, 6]: NAD; Animal Condition Day 3 [1, 6]: NAD; Animal Condition Day 4 [1, 6]: NAD; Animal Condition Day 5 [1, 6]: NAD; antibacterial effect on A. baumannii vs day 3 vehicle control ([2]; day 3): significant antibacterial effect; also recorded: significant antibacterial activity; antibacterial effect on A. baumannii vs day 3 vehicle control ([2]; day 5): significant antibacterial effect; also recorded: significant antibacterial activity; activity vs vehicle control on day 1 ([2]; 10% solution aerosol, day 1, p>0.05): No significant activity; Log10 CFU/g lung Mean ± SD ([2]; 3 doses, once daily for 3 days, p < 0.05 vs corresponding vehicle control): 4.01 ± 0.72 Log10 CFU/g lung; Log10 CFU/g lung ([2]; 3 doses, once daily for 3 days): 4.75 Log10 CFU/g lung and 3.02 Log10 CFU/g lung and 4.34 Log10 CFU/g lung and 3.19 Log10 CFU/g lung and 4.29 Log10 CFU/g lung and 4.46 Log10 CFU/g lung; Log10 CFU/g lung Mean ± SD ([2]; 5 doses, once daily for 5 days, p < 0.05 vs day 3 vehicle control): 2.69 ± 0.16 Log10 CFU/g lung; Log10 CFU/g lung ([2]; 5 doses, once daily for 5 days): 2.76 Log10 CFU/g lung and 2.51 Log10 CFU/g lung and 2.71 Log10 CFU/g lung and 2.62 Log10 CFU/g lung and 2.96 Log10 CFU/g lung and 2.60 Log10 CFU/g lung; Log10 CFU/g lung Mean ± SD ([2]; single dose): 5.67 ± 0.47 Log10 CFU/g lung; Log10 CFU/g lung ([2]; single dose): 5.51 Log10 CFU/g lung and 6.03 Log10 CFU/g lung and 5.54 Log10 CFU/g lung and 6.30 Log10 CFU/g lung and 5.72 Log10 CFU/g lung and 4.93 Log10 CFU/g lung; decrease in lung burden compared to the vehicle on day 1 ([2]; following treatment for 5 days): > 3 Log10) CFU/g lung; MIC (P. aeruginosa): 27 mg/mL; MIC (E. coli): 54 mg/mL; Body Weight (g) Mean ± SD ([3]; 3 doses, once daily for 3 days, Day 0): 25.17 ± 0.75 g; Body Weight (g) Mean ± SD ([3]; 3 doses, once daily for 3 days, Day 1): 24.50 ± 0.55 g; Body Weight (g) Mean ± SD ([3]; 3 doses, once daily for 3 days, Day 2): 23.17 ± 0.75 g; Body Weight (g) Mean ± SD ([3]; 3 doses, once daily for 3 days, Day 3 (n = 3)): 22.33 ± 0.58 g; Body Weight (g) Mean ± SD ([3]; 5 doses, once daily for 5 days, Day 0): 25.33 ± 0.82 g; Body Weight (g) Mean ± SD ([3]; 5 doses, once daily for 5 days, Day 1): 24.33 ± 0.52 g; Body Weight (g) Mean ± SD ([3]; 5 doses, once daily for 5 days, Day 2): 23.33 ± 0.52 g; Body Weight (g) Mean ± SD ([3]; 5 doses, once daily for 5 days, Day 3 (n = 3)): 22.67 ± 0.58 g; Body Weight (g) Mean ([3]; 5 doses, once daily for 5 days, Day 4 (n = 2)): 22.50 g; Body Weight (g) Mean ([3]; 5 doses, once daily for 5 days, Day 5 (n = 2)): 22.00 g; Body Weight (g) Mean ± SD ([3]; single dose group, Day 0): 25.50 ± 0.55 g; Body Weight (g) Mean ± SD ([3]; single dose group, Day 1): 24.17 ± 0.41 g; change in mean body weights ([3]; vehicle and treatment groups): Decreases in mean body weights were observed; piloerection, loss of grooming and respiratory symptoms [4]: decreased piloerection, nasal discharge and gasping symptoms; also recorded: a marked decrease was observed in treated groups

Reference: patent US12030908B2, “Antimicrobial compounds, compositions, and uses thereof” (Lakewood Amedex, Inc., priority 2017, dated 2024)
